Literature values as cited in patent US20240360088A1, “WATER-SOLUBLE NERVE DYES FOR IN VIVO NERVE-SPECIFIC IMAGING” (Oregon Health & Science University, priority 2021, published 2024).

Tested on: rodent nerves
Conditions: for nerve specificity: direct and systemic administration, preclinical

Row | Compound | fluorescence signal for real time imaging (co-solvent formulation as vehicle for intravenous injection) | nerve specificity | nerve-specific signal (systemic administration)
1 | CCNc1cc2oc3cc(=[N+](CC)CC)ccc-3nc2cc1C [Comparative Example No. 1, 3-(diethyl-14-azaneylidene)-N-ethyl-8-methyl-3H-phenoxazin-7-amine] | adequate fluorescence signal | high nerve specificity | 
2 | CC/N=c1/cc2oc3cc(NCC)c(C)cc3nc-2cc1C [Oxazine 4] |  | high nerve specificity | nerve-specific signal following systemic administration in all rodent nerves
